According to the supplement of paper PMC10307832:

Experiments:
Assay in all cases: relative viability (nuclei count vs DMSO), 5 days (fraction); higher = more cells survive
[1] = compound: CC(C)C[C@H](NC(=O)[C@H](Cc1ccccc1)NC(=O)c1cnccn1)B(O)O [Bortezomib] + O=C(CCCCCCC(=O)Nc1ccccc1)NO [Vorinostat] (partner 1 µM)
In short: (§1)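 Dosing by pin tool came one day after lung cancer cell lines were seeded in 1536-well plates, using either one drug or a fixed anchor-drug dose plus five library-drug doses (not always all listed) in √10 steps. After 5 days, nuclei were counted on 4× images. Relative viability is treated-well nuclei count divided by vehicle-well nuclei count, and values are medians of duplicate plates.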

[2] = compound: CC1=CC(=NN1)NC2=CC(=NC(=N2)/C=C/C3=CC=CC=C3)N4CCN(CC4)C + CS(=O)(=O)CCNCc1ccc(-c2ccc3ncnc(Nc4ccc(OCc5cccc(F)c5)c(Cl)c4)c3c2)o1 [Lapatinib] (partner 2 µM)
In short: as §1

[3] = compound: COC1=CC(c2cc3ccccc3[nH]2)=N/C1=C\c1[nH]c(C)cc1C [Obatoclax] + CS(=O)(=O)N1CCN(Cc2cc3nc(-c4cccc5[nH]ncc45)nc(N4CCOCC4)c3s2)CC1 [Pictilisib] (partner 1 µM)
In short: as §1

[4] = compound: CC(C)C[C@H](NC(=O)[C@H](Cc1ccccc1)NC(=O)c1cnccn1)B(O)O [Bortezomib] + COc1cccc2cc(-c3nc([C@H]4CC[C@H](C(=O)O)CC4)n4ncnc(N)c34)[nH]c12 [OSI-027] (partner 0.5 µM)
In short: as §1

HCC-44 showed a relative viability ([1]; first compound 0.0002 µM) of 1.07, a relative viability ([1]; first compound 0.000632 µM) of 1.07 and a relative viability ([1]; first compound 0.002 µM) of 1.1. For the same cell line, the relative viability ([1]; first compound 0.006325 µM) was 0.557, the relative viability ([1]; first compound 0.02 µM) was 0.328 and the relative viability ([2]; first compound 0.08 µM) was 1.02. It also gave a relative viability ([2]; first compound 0.253 µM) of 1.07, a relative viability ([2]; first compound 0.8 µM) of 0.955 and a relative viability ([2]; first compound 2.53 µM) of 0.85. For the same cell line, the relative viability ([2]; first compound 8 µM) was 0.101, the relative viability ([3]; first compound 0.01 µM) was 0.69 and the relative viability ([3]; first compound 0.03162 µM) was 0.552. It also gave a relative viability ([3]; first compound 0.1 µM) of 0.577, a relative viability ([3]; first compound 0.3162 µM) of 0.583 and a relative viability ([3]; first compound 1 µM) of 0.246. For the same cell line, the relative viability ([4]; first compound 0.0002 µM) was 0.462, the relative viability ([4]; first compound 0.000632 µM) was 0.523 and the relative viability ([4]; first compound 0.002 µM) was 0.472. It also gave a relative viability ([4]; first compound 0.006325 µM) of 0.252 and a relative viability ([4]; first compound 0.02 µM) of 0.197.

With NCI-H1944 the relative viability ([1]; first compound 0.0002 µM) was 0.563, the relative viability ([1]; first compound 0.000632 µM) was 0.546 and the relative viability ([1]; first compound 0.002 µM) was 0.633. It also gave a relative viability ([1]; first compound 0.006325 µM) of 0.333, a relative viability ([1]; first compound 0.02 µM) of 0.148 and a relative viability ([2]; first compound 0.08 µM) of 0.837. It also gave a relative viability ([2]; first compound 0.253 µM) of 0.931, a relative viability ([2]; first compound 0.8 µM) of 0.865 and a relative viability ([2]; first compound 2.53 µM) of 0.655. It also gave a relative viability ([2]; first compound 8 µM) of 0.29, a relative viability ([3]; first compound 0.01 µM) of 0.34 and a relative viability ([3]; first compound 0.03162 µM) of 0.332. The relative viability ([3]; first compound 0.1 µM) was 0.337, the relative viability ([3]; first compound 0.3162 µM) was 0.295 and the relative viability ([3]; first compound 1 µM) was 0.336. For the same cell line, the relative viability ([4]; first compound 0.0002 µM) was 0.383, the relative viability ([4]; first compound 0.000632 µM) was 0.383 and the relative viability ([4]; first compound 0.002 µM) was 0.449. The relative viability ([4]; first compound 0.006325 µM) was 0.347 and the relative viability ([4]; first compound 0.02 µM) was 0.239.

For SK-MES-1, the relative viability ([1]; first compound 0.0002 µM) was 1.08, the relative viability ([1]; first compound 0.000632 µM) was 1.1 and the relative viability ([1]; first compound 0.002 µM) was 1. The relative viability ([1]; first compound 0.006325 µM) was 0.164, the relative viability ([1]; first compound 0.02 µM) was 0.158 and the relative viability ([2]; first compound 0.08 µM) was 0.44. The relative viability ([2]; first compound 0.253 µM) was 0.52, the relative viability ([2]; first compound 0.8 µM) was 0.453 and the relative viability ([2]; first compound 2.53 µM) was 0.329. The relative viability ([2]; first compound 8 µM) was 0.146, the relative viability ([3]; first compound 0.01 µM) was 0.393 and the relative viability ([3]; first compound 0.03162 µM) was 0.379. It also gave a relative viability ([3]; first compound 0.1 µM) of 0.392, a relative viability ([3]; first compound 0.3162 µM) of 0.402 and a relative viability ([3]; first compound 1 µM) of 0.268. For the same cell line, the relative viability ([4]; first compound 0.0002 µM) was 0.64, the relative viability ([4]; first compound 0.000632 µM) was 0.591 and the relative viability ([4]; first compound 0.002 µM) was 0.47. It also gave a relative viability ([4]; first compound 0.006325 µM) of 0.14 and a relative viability ([4]; first compound 0.02 µM) of 0.128.

Cell Line NCI-H2087 has a relative viability ([1]; first compound 0.0002 µM) of 0.465, a relative viability ([1]; first compound 0.000632 µM) of 0.886 and a relative viability ([1]; first compound 0.002 µM) of 0.555. It also gave a relative viability ([1]; first compound 0.006325 µM) of 0.0577, a relative viability ([1]; first compound 0.02 µM) of 0.0279 and a relative viability ([2]; first compound 0.08 µM) of 1.01. It also gave a relative viability ([2]; first compound 0.253 µM) of 1.02, a relative viability ([2]; first compound 0.8 µM) of 1.03 and a relative viability ([2]; first compound 2.53 µM) of 0.582. It also gave a relative viability ([2]; first compound 8 µM) of 0.188, a relative viability ([3]; first compound 0.01 µM) of 0.908 and a relative viability ([3]; first compound 0.03162 µM) of 0.925. The relative viability ([3]; first compound 0.1 µM) was 0.825, the relative viability ([3]; first compound 0.3162 µM) was 0.334 and the relative viability ([3]; first compound 1 µM) was 0.206. For the same cell line, the relative viability ([4]; first compound 0.0002 µM) was 0.667, the relative viability ([4]; first compound 0.000632 µM) was 0.401 and the relative viability ([4]; first compound 0.002 µM) was 0.224. The relative viability ([4]; first compound 0.006325 µM) was 0.0576 and the relative viability ([4]; first compound 0.02 µM) was 0.0622.

For COR-L 105, the relative viability ([1]; first compound 0.0002 µM) was 0.846, the relative viability ([1]; first compound 0.000632 µM) was 0.306 and the relative viability ([1]; first compound 0.002 µM) was 0.824. The relative viability ([1]; first compound 0.006325 µM) was 0.276, the relative viability ([1]; first compound 0.02 µM) was 0.271 and the relative viability ([2]; first compound 0.08 µM) was 0.335. It also gave a relative viability ([2]; first compound 0.253 µM) of 0.341, a relative viability ([2]; first compound 0.8 µM) of 0.338 and a relative viability ([2]; first compound 2.53 µM) of 0.23. The relative viability ([2]; first compound 8 µM) was 0.223, the relative viability ([3]; first compound 0.01 µM) was 0.407 and the relative viability ([3]; first compound 0.03162 µM) was 0.47. For the same cell line, the relative viability ([3]; first compound 0.1 µM) was 0.495, the relative viability ([3]; first compound 0.3162 µM) was 0.328 and the relative viability ([3]; first compound 1 µM) was 0.286. It also gave a relative viability ([4]; first compound 0.0002 µM) of 0.747, a relative viability ([4]; first compound 0.000632 µM) of 0.606 and a relative viability ([4]; first compound 0.002 µM) of 0.456. It also gave a relative viability ([4]; first compound 0.006325 µM) of 0.316 and a relative viability ([4]; first compound 0.02 µM) of 0.272.

For LCLC-97TM1, the relative viability ([1]; first compound 0.0002 µM) was 0.615, the relative viability ([1]; first compound 0.000632 µM) was 0.695 and the relative viability ([1]; first compound 0.002 µM) was 0.748. It also gave a relative viability ([1]; first compound 0.006325 µM) of 0.148, a relative viability ([1]; first compound 0.02 µM) of 0.0598 and a relative viability ([2]; first compound 0.08 µM) of 1.29. It also gave a relative viability ([2]; first compound 0.253 µM) of 1.06, a relative viability ([2]; first compound 0.8 µM) of 0.922 and a relative viability ([2]; first compound 2.53 µM) of 0.158. The relative viability ([2]; first compound 8 µM) was 0.0857, the relative viability ([3]; first compound 0.01 µM) was 0.18 and the relative viability ([3]; first compound 0.03162 µM) was 0.201. The relative viability ([3]; first compound 0.1 µM) was 0.325, the relative viability ([3]; first compound 0.3162 µM) was 0.139 and the relative viability ([3]; first compound 1 µM) was 0.154. It also gave a relative viability ([4]; first compound 0.0002 µM) of 0.475, a relative viability ([4]; first compound 0.000632 µM) of 0.336 and a relative viability ([4]; first compound 0.002 µM) of 0.583. It also gave a relative viability ([4]; first compound 0.006325 µM) of 0.233 and a relative viability ([4]; first compound 0.02 µM) of 0.129.

Work on NCI-H522 yielded a relative viability ([1]; first compound 0.0002 µM) of 0.824, a relative viability ([1]; first compound 0.000632 µM) of 0.818 and a relative viability ([1]; first compound 0.002 µM) of 0.976. For the same cell line, the relative viability ([1]; first compound 0.006325 µM) was 0.446, the relative viability ([1]; first compound 0.02 µM) was 0.334 and the relative viability ([4]; first compound 0.0002 µM) was 0.632. For the same cell line, the relative viability ([4]; first compound 0.000632 µM) was 0.556, the relative viability ([4]; first compound 0.002 µM) was 0.724 and the relative viability ([4]; first compound 0.006325 µM) was 0.439. For the same cell line, the relative viability ([4]; first compound 0.02 µM) was 0.465.
